Data taken from US20240082433A1, “TUMOR RESECTION PROCESS AND COMPOSITION CONTAINING IRIDIUM-CONTAINING NUCLEOSIDE” (Cleveland State University, priority 2022, published 2024).

What was measured:
[1] = system: brain cancer cells (U87); experiment: Uptake/fluorescence imaging in 3D and 2D U87 brain cancer cell culture; assay type: cell-based, human
Procedure: To improve the imaging capabilities of this class of compound, additional analogs corresponding to Ir(III)-BZQ nucleoside and Ir(III)-PBO nucleoside (FIG. 5) were synthesized and tested for uptake using 3-dimensional cell culture techniques. […] Fluorescent microscopy was used to investigate the uptake of each nucleoside in which cells were treated with 1 μM of each compound for 24 hours. […] This conclusion is based on the more intense fluorescent signal observed in cells treated with Ir(III)-BZQ nucleoside that accurately defines the overall 3-dimensional shape of the cancerous mass. In particular, the overall intensity in green fluorescence caused by the uptake of Ir(III)-BZQ nucleoside is about 5 times greater than observed in cells treated with equivalent concentrations of Ir(III)-PPY nucleoside. […] While this represents an interesting phenomenon, this behavior precludes the ability of Ir(III)-PBO nucleoside to function as a “tumor margin” imaging agents since there is no defined outline of the cancerous mass.
(§1) Fluorescent microscopy techniques were used to measure both red and green fluorescence associated with the cellular uptake of the analog over a three (3) day treatment period. […] The fluorescent signals are only observed in the 3D cancerous masses, thus making them easily identifiable at low magnification (10×).
FIG. 10 compares fluorescence activity of Ir(III)-BZQ nucleoside with Indocyanine green at a fixed concentration of 10 μM. Images were taken comparing fluorescence emission in the red (600-700 nm) and green spectral range (500-600 nm) after 24 hours post-treatment.

[2] = system: brain cancer cells (U87); experiment: Cell-killing effects against 2D and 3D U87 brain cancer cells by microscopy; assay type: cell-based, human; details: for cell-killing / therapeutic activity: U87 3D masses and 2D cells, 10 μM
Procedure: FIG. 7 illustrates the time-dependent uptake and cell-killing effects of Ir(III)-BZQ nucleoside (10 μM) against 2D and 3D brain cancer cells.
as §1

[3] = system: MDA-MB-453; experiment: Uptake/fluorescence in 3D TNBC model MDA-MB-453; assay type: cell-based
Procedure: (§2) The theranostic activity of […] was also confirmed using 3D models of triple negative breast cancer (TNBC) (MDA-MB-453, MDA-MB-468, BT-549, MDA-MB-231). TNBC cells were chosen due to the poor prognosis caused by their aggressive nature and limited treatment options. 3D cancer cells were treated with 10 μM Ir(III)-BZQ nucleoside for 24 hours prior to microscopy analyses.
Two (2) new Iridium-nucleosides designated Ir(III)-PPY-nucleoside (small, hydrophobic) and Ir(III)-PBO nucleoside (small, hydrophilic) were synthesized and tested as cancer imaging agents. FIG. 14 compares the imaging properties of these two analogs versus our lead agent, Ir(III)-BZQ nucleoside (small, hydrophobic). Experiments were performed treating MDA-MB-453 cells with 1 μM of each compound for 3 days. […] This phenomenon precludes its further development as a tumor margin imaging agent as it poorly defines the entire 3D mass as compared to Ir(III)-BZQ nucleoside and Ir(III)-PPY nucleoside.

[4] = system: MDA-MB-468; experiment: Uptake/fluorescence in 3D TNBC model MDA-MB-468; assay type: cell-based; details: 3D MB-468, 10 μM, 24 hours
Procedure: as §2

[5] = system: BT-549; experiment: Uptake/fluorescence in 3D TNBC model BT-549; assay type: cell-based; details: 3D BT-549, 10 μM, 24 hours
Procedure: as §2

[6] = system: MDA-MB-231; experiment: Uptake/fluorescence in 3D TNBC model MDA-MB-231; assay type: cell-based; details: 3D MB-231, 10 μM, 24 hours
Procedure: as §2

[7] = system: MT1A2 cells (derived from PyMT); experiment: Uptake/fluorescence in MT1A2 cells; assay type: cell-based; details: MT1A2, 10 μM, 24 hours
[8] = system: normal fibroblasts; experiment: LD50 in 2D cell culture, normal fibroblasts; assay type: cell-based; details: 2D cell cultures
Text: The therapeutic activity and selectivity of Ir(III)-BZQ nucleoside was confirmed by measuring LD50 values against MB-468 cells (high accumulation), MDA-MB-231 (low accumulation), and normal fibroblasts using 2D cell cultures (Table 1, below).

[9] = system: MDA-MB-468 cells; experiment: Dual parameter flow cytometry (Annexin V / propidium iodide) apoptosis; assay type: cell-based; details: MDA-MB-468, variable concentrations
Text: Dual parameter flow cytometry employing Annexin V and propidium iodide staining was used to measure apoptosis in MDA-MB-468 cells treated with variable concentrations of Ir(III)-BZQ nucleoside. […] Microscopy imaging verifies an increase in green fluorescence caused by the accumulation of Ir(III)-BZQ nucleoside and correlates with the dose-dependent increase in apoptosis caused by the agent.

[10] = system: cervical cancer cells (KB3-1 cell line); experiment: Cellular uptake into KB3-1 cells by fluorescence microscopy; assay type: cell-based, human
Procedure: FIG. 3 includes fluorescence microscopy images of the dose-dependent uptake of Ir(III)-PPY nucleoside in the human cancer cell line, KB3-1, particularly showing increased Ir(III)-PPY nucleoside (green) as a function of increasing concentration (Δt=4 hours).
Several Iridium-containing nucleosides were synthesized and their imaging and anti-cancer activities were characterized. One non-limiting example of a compound is designated as Ir(III)-PPY nucleoside and shown in FIG. 2 next to deoxyadenosine. The synthetic design relies on the catalyzed [3+2] cycloaddition of azides to terminal alkynes. In this design, pyridyl triazoles covalently link the metal atom to the deoxyribose and this prevents metal dissociation from the complex. The cellular uptake of Ir(III)-PPY nucleoside into cervical cancer cells (KB3-1 cell line) was evaluated by treating cells with variable concentrations of Ir(III)-PPY nucleoside (0-50 μM). At times ranging from 4 to 24 hours, fluorescence microscopy images were taken using an excitation wavelength (λex) of 340 nm and an emission wavelength (λem) of 480 nm. […] The uptake of low concentrations (10 μM) of Ir(III)-PPY nucleoside can be visualized as early as 4 hours post treatment. […] Thus, the cellular uptake can be measured on short time scales (Δt<12 hours) without complications arising from effects on cell viability.

[11] = system: cervical cancer cells (KB3-1 cell line); experiment: Cytotoxic effects in KB3-1 cells; assay type: cell-based, human; details: KB3-1, after 24 hours
Text: Several Iridium-containing nucleosides were synthesized and their imaging and anti-cancer activities were characterized. One non-limiting example of a compound is designated as Ir(III)-PPY nucleoside and shown in FIG. 2 next to deoxyadenosine. The synthetic design relies on the catalyzed [3+2] cycloaddition of azides to terminal alkynes. In this design, pyridyl triazoles covalently link the metal atom to the deoxyribose and this prevents metal dissociation from the complex. The cellular uptake of Ir(III)-PPY nucleoside into cervical cancer cells (KB3-1 cell line) was evaluated by treating cells with variable concentrations of Ir(III)-PPY nucleoside (0-50 μM). At times ranging from 4 to 24 hours, fluorescence microscopy images were taken using an excitation wavelength (λex) of 340 nm and an emission wavelength (λem) of 480 nm. […] The uptake of low concentrations (10 μM) of Ir(III)-PPY nucleoside can be visualized as early as 4 hours post treatment. Ir(III)-PPY nucleoside produces weak cytotoxic effects (IC50˜50 μM) after 24 hours. Thus, the cellular uptake can be measured on short time scales (Δt<12 hours) without complications arising from effects on cell viability.

[12] = system: human brain cancer cell line, U87, that expresses red fluorescent protein (RFP); experiment: Selective uptake in co-culture, RFP-U87 cells, fluorescent microscopy; assay type: cell-based; details: RFP-U87 co-cultured with normal fibroblasts, 10 μM, 4 hours
Text: FIG. 4 includes microscopy images showing co-localization of Ir(III)-PPY nucleoside in glioblastoma cells expressing red-fluorescent protein (RFP-U87).
(§3) Fluorescent microscopy was then used to validate that the uptake of Ir(III)-PPY nucleoside is selective for cancer cells. FIG. 4 compares the uptake of Ir(III)-PPY nucleoside using a human brain cancer cell line, U87, that expresses red fluorescent protein (RFP) versus normal fibroblasts. In these experiments, RFP-U87 cells were co-cultured with normal fibroblasts overnight and then treated with 10 μM Ir(III)-PPY nucleoside for 4 hours. […] Similar results were obtained at longer time intervals encompassing 24 hours incubation with Ir(III)-PPY nucleoside (data not shown).

[13] = system: normal fibroblasts; experiment: Selective uptake in co-culture, normal fibroblasts, fluorescent microscopy; assay type: cell-based; details: co-cultured with RFP-U87, 10 μM, 4 hours
Procedure: as §3

[14] = U87, 10 μM, three days vs 1 day

CC1(C)C(/C=C/C=C/C=C/C=C2\N(CCCCS(=O)(=O)O)c3ccc4ccccc4c3C2(C)C)=[N+](CCCCS(=O)(=O)[O-])c2ccc3ccccc3c21 [Indocyanine green, reference compound]
fluorescence emission in the red spectral range (600-700 nm), direct comparison ([1]; 10 μM, 24 hours post-treatment): superior fluorescence emission activity
red fluorescence in U87 cells ([1]; 1 and 10 μM, after 24 hours, 10× magnification): dose-and time dependent increase in red fluorescence
fluorescence emission activity in the red spectral range (600-700 nm) relative to Ir(III) BZQ nucleoside ([1]; U87, identical concentrations (1 and 10 μM), 24 hours): ~5 times
cell-killing / therapeutic activity ([2]; 1 to 3 days treatment): no detectable therapeutic activity
overall size of the 3D masses ([2]; U87, 10 μM, 1 to 3 days treatment): increases as a function of time

F[P-](F)(F)(F)(F)F.OCC1OC(n2cc(-c3ccccn3)nn2)CC1O.c1cnc2c(c1)ccc1ccc[c]([Ir][c]3cccc4ccc5cccnc5c34)c12 [Ir(III)-BZQ nucleoside]
fluorescence emission in the green spectral range (500-600 nm), direct comparison ([1]; 10 μM, 24 hours post-treatment): superior fluorescence emission
imaging activity amongst the three compounds tested ([1]; U87 3D masses, 1 μM, 24 hours): superior activity
red fluorescence ([1]; U87 3D masses, 1 μM, 24 hours): display red fluorescence
overall intensity in green fluorescence relative to Ir(III)-PPY nucleoside ([1]; U87 3D masses, 1 μM, 24 hours, equivalent concentrations): about 5 times
fluorescence signal in 2D cells ([1]; U87, 10 μM, 10× magnification): Little to no fluorescence signal
fluorescence signals in 3D cancerous masses ([1]; U87, 10 μM, after 1 day, 10× magnification): intense red and green fluorescence signals
fluorescence signals in 3D masses ([1]; U87, 10 μM, after three days): still show intense fluorescence signals
cell-killing / therapeutic activity ([2]; 1 to 3 days treatment): possesses cell-killing activity
cell-killing effect on 2D cells [2, 14]: reduction in the number of 2D cells
cell-killing effect on 3D masses [2, 14]: death of cells that reside at the outer fringe of the cancerous mass
fluorescence signals (uptake and accumulation) ([3]; 3D MB-453, 10 μM, 24 hours): high fluorescence signals
fluorescence intensity compared to Ir(III)-PPY nucleoside and Ir(III)-PBO nucleoside ([3]; MDA-MB-453, 1 μM, 3 days): ~5 fold
imaging activity among the three compounds ([3]; MDA-MB-453, 1 μM, 3 days): superior activity
fluorescence signals (uptake and accumulation) [4]: high fluorescence signals
fluorescence signals (uptake and accumulation) [5]: weak fluorescence
fluorescence signals (uptake and accumulation) [6]: weak fluorescence
fluorescence signals (uptake and accumulation) [7]: no fluorescence signals
cytotoxic effects (LD50) [8]: minimal cytotoxic effects
apoptosis [9]: increase in both early- and late-stage apoptosis
necrotic cell death [9]: without causing necrotic cell death

F[P-](F)(F)(F)(F)F.OCC1OC(n2cc(-c3ccccn3)nn2)CC1O.c1ccc(-c2ncco2)[c]([Ir][c]2ccccc2-c2ncco2)c1 [Ir(III)-PBO nucleoside]
fluorescence pattern in cells ([1]; U87 3D masses, 1 μM, 24 hours): unique punctates
red fluorescence ([1]; U87 3D masses, 1 μM, 24 hours): not observed
fluorescence pattern in cells ([3]; MDA-MB-453, 1 μM, 3 days): unique punctates

F[P-](F)(F)(F)(F)F.OCC1OC(n2cc(-c3ccccn3)nn2)CC1O.c1ccc(-c2cccc[c]2[Ir][c]2ccccc2-c2ccccn2)nc1 [Ir(III)-PPY nucleoside]
intracellular accumulation (green fluorescence) ([10]; KB3-1, 0-50 μM, 4 to 24 hours, λex 340 nm, λem 480 nm): dose-dependent
time post treatment at which uptake can be visualized ([10]; KB3-1, 10 μM): ≤ 4 h
IC50 [11]: ~50 µM
uptake in U87 cancer cells [12]: rapidly accumulates
uptake in normal fibroblasts [13]: no uptake
red fluorescence ([1]; U87 3D masses, 1 μM, 24 hours): not observed
